Laboratory results as given in publication PMC2678990, “Stilbene glycosides are natural product inhibitors of FGF-2-induced angiogenesis” (BMC Cell Biology, 2009).

Test system: BAEC
Assay: FGF-2 invasion in Matrigel
Type: cell-based, bovine
Settings: Bos taurus, FGF-2 25 ng/ml
Method: The effect of the test compounds on cell invasion was investigated using a Transwell Boyden chamber system coated with reconstituted growth factor-depleted Matrigel. […] Representative photomicrographs for the effect of compound 1 are shown (Figure 7B).
Figure 7 The effect of compounds 1 (AI) and 2 (AII) on BAEC invasion into a Matrigel layer was studied using the chemoinvasion assay described below. Cells (1.7 × 10^4) were added to the Matrigel coated upper Boyden chamber and the compounds with or without FGF-2 added to the lower chamber. Cell invasion was measured after 24 h and assessed as described below. […] Results are the mean of three experiments. (B) Representative photomicrographs are shown for the effect of compound 1 on BAEC (original magnification × 20).
The procedure described above was repeated and wells having a uniform network of tubes were used to assess invasion into a second layer of Matrigel. Matrigel (100 μl), with and without the test compounds was added to the cells and allowed to polymerise (1 h at 37°C). FCS (15%) was added and the cells incubated for 24–72 h when tube growth into the upper layer was measured as described above.

Question: Which IC50 does the source give for `COc1cc(C=Cc2ccc(O)cc2)cc(OC2OC(COC3OC(C)C(O)C(O)C3O)C(O)C(O)C2OC2OC(C)C(O)C(O)C2O)c1` (stereo not shown) [Compound 1] here?
Answer: 11.1 ± 0.28 µM
